From paper PMC11284788, “NN1213 – A Potent, Long-Acting, and Selective Analog of Human Amylin” (Journal of Medicinal Chemistry, 2024)
Where two headings read alike, the source gives them in different places. Numbered stars: 1 amine (or outer) side, 2 acyl side, 3 side chain; on linkers, the order of the positions; unused ones are H or OH. Bridge positions count the residues as written; N and C are the ends. Side chains are listed from the residue outwards. Peptide text beside a SMILES is read from it. * marks the point of attachment. C20 diacid = O=C(O)CCCCCCCCCCCCCCCCCCC(=O)*; γGlu = O=C(O)[C@H](CCC(=O)[*:2])N[*:1]

Columns and labels:
hCTR [1] = biological target: T1, hCTR (Homo sapiens, UniProt P30988); test: scintillation proximity binding assay, hCTR membranes; design: expressed in transfected cells; host or cells: BHK tk-ts 13, transient (FuGENE 6); membranes for the SPA, whole cells for the species-specific assays
T1 sequence (P30988 25-474): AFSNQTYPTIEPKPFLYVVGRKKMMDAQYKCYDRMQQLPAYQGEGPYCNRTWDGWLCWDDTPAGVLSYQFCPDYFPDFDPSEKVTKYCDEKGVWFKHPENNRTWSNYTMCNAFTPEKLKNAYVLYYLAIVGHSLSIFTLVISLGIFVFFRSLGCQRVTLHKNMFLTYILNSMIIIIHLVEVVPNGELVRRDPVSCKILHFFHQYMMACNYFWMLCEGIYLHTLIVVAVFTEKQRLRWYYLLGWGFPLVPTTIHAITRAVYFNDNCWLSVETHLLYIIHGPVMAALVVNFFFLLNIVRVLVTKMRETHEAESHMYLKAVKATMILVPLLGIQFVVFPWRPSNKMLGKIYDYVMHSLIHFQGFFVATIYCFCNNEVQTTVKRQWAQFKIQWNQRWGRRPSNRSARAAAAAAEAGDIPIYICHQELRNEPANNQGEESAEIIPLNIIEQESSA
Procedure: The apparent binding affinities were determined using a scintillation proximity assay with beads from PerkinElmer and cell membranes containing the AMY3R or CTRs. […] Membranes were harvested and membranes were prepared and kept at −80 °C until use. The assay was performed in a 384-well Optiplate (PerkinElmer). Membranes were mixed with scintillation proximity assay beads in a 1:1 ratio. […] Samples were analyzed on a TopCounter (Packard). The IC50 values were calculated using GraphPad Prism. See Supporting Information S7: SAR Screening Assay Methods (Binding Assays (Human and Rat)) for more information.
Binding Assays (Human and Rat). Brief descriptions of the methods used to determine binding affinities for SAR analysis are described below. Curves and IC50 values were plotted and calculated in GraphPad Prism using nonlinear regression (one site binding competition analysis), with pIC50 values […]
values were used to calculate the binding affinity ratios in order to express the selectivity of compounds for the AMY3R versus the CTR.
CTR Binding Assay. The binding assay was performed using scintillation proximity assay (SPA) beads (RPNQ0001) from PerkinElmer and cell membranes containing either the hCTR or rCTR. BHK […]
Membranes were prepared in the following way: the cells were rinsed with PBS and incubated with Versene for approximately 5 min before harvesting. The cells were flushed with PBS and the cell-suspension was centrifuged for 5 min at 1000 rpm. Cells were homogenized (Ultra Turrax) in a buffer […]
containing 20 mM Na-HEPES and 0.1 mM EDTA (pH 7.4, buffer 2). The resulting pellet was re-suspended in buffer 2 and protein concentration was measured (BCA protein assay, Pierce). The homogenate was kept cold during the whole procedure. The membranes were stored at –80 °C until […]
The binding assay was performed in a 384-well Optiplate (PerkinElmer) in a total volume of 40 μL.
Membranes were mixed with SPA beads in a 1:1 ratio. […]
mg/well. Test compounds were dissolved in DMSO and further diluted in assay buffer (50 mM HEPES, pH 7.4, 1 mM CaCl2, 5 mM MgCl2, 0.1% ovalbumin, and 0.02% Tween-20).
Calcitonin (NEX422 PerkinElmer) was dissolved in assay buffer and added to the Optiplate at a final […]
prior to centrifugation (1500 rpm, 10 min). Samples were analyzed on TopCounter (Packard).

hCTR [2] = biological target: T1, hCTR; test: cAMP-responsive element luciferase reporter assay, human CTR; format: cell-based; conditions: luciferase (human receptor assay)
[3] = SPA binding assay, Tables S13 and S15, read-out: hCTR pIC50 (converted)
[4] = SPA, BHK cell membranes, 125I-Calcitonin 75 pM, 120 min 25 °C, read-out: hCTR IC50
[5] = Tables S12 and S14, read-out: hCTR pEC50 (converted)
[6] = BHK cells stably expressing hCTR and CRE-luciferase, 3 h, 37 °C, 10% FBS, read-out: hCTR EC50

SMILES: CC[C@H](C)[C@H](NC(=O)[C@@H]1CCCN1C(=O)CNC(=O)[C@H](Cc1ccccc1)NC(=O)[C@H](CC(N)=O)NC(=O)[C@@H]1CCCN1C(=O)[C@H](CO)NC(=O)[C@H](CO)NC(=O)[C@H](Cc1c[nH]cn1)NC(=O)[C@H](CCCNC(=N)N)NC(=O)[C@H](CC(C)C)NC(=O)[C@H](Cc1ccccc1)NC(=O)[C@H](CC(=O)O)NC(=O)[C@H](C)NC(=O)[C@H](CC(C)C)NC(=O)[C@H](CCCNC(=N)N)NC(=O)[C@H](CCC(N)=O)NC(=O)[C@@H](NC(=O)[C@H](C)NC(=O)[C@@H]1CSSC[C@H](NC(=O)[C@@H](N)CCCCNC(=O)CC[C@H](NC(=O)CC[C@H](NC(=O)CCCCCCCCCCCCCCCCCCC(=O)O)C(=O)O)C(=O)O)C(=O)N[C@@H](CC(N)=O)C(=O)N[C@@H]([C@@H](C)O)C(=O)N[C@@H](C)C(=O)N[C@@H]([C@@H](C)O)C(=O)N1)[C@@H](C)O)C(=O)N[C@@H](CC(C)C)C(=O)N[C@@H](CO)C(=O)N[C@@H](CO)C(=O)N[C@H](C(=O)N[C@@H](CC(N)=O)C(=O)N[C@H](C(=O)NCC(=O)N[C@@H](CO)C(=O)N[C@@H](CC(=O)O)C(=O)N[C@H](C(=O)N[C@@H](Cc1ccc(O)cc1)C(N)=O)[C@@H](C)O)C(C)C)[C@@H](C)O [Peptide 3] (H-K([γGlu-γGlu-C20 diacid])CNTATCATQRLADFLRHSSPNFGPILSSTNVGSDTY-NH2; disulfide 2-7)
- IC50 (hCTR [1]; [3]): 74.1 nM
- IC50 (hCTR [1]; [4]): 74.1 nM
- EC50 (hCTR [2]; [5]): 3.02 nM
- EC50 (hCTR [2]; [6]): 3 nM

SMILES: CC(C)C[C@H](NC(=O)[C@H](CCCNC(=N)N)NC(=O)[C@H](CCC(N)=O)NC(=O)[C@@H](NC(=O)[C@H](C)NC(=O)[C@@H]1CSSC[C@H](NC(=O)[C@@H](N)CCCCNC(=O)CC[C@H](NC(=O)CC[C@H](NC(=O)CCCCCCCCCCCCCCCCCCC(=O)O)C(=O)O)C(=O)O)C(=O)N[C@@H](CC(N)=O)C(=O)N[C@@H]([C@@H](C)O)C(=O)N[C@@H](C)C(=O)N[C@@H]([C@@H](C)O)C(=O)N1)[C@@H](C)O)C(=O)N[C@@H](C)C(=O)N[C@@H](CC(=O)O)C(=O)N[C@@H](Cc1ccccc1)C(=O)N[C@@H](CC(C)C)C(=O)N[C@@H](CCCNC(=N)N)C(=O)N[C@@H](Cc1c[nH]cn1)C(=O)N[C@@H](CO)C(=O)N[C@@H](CO)C(=O)N1CCC[C@H]1C(=O)N[C@@H](CC(N)=O)C(=O)N[C@@H](Cc1ccccc1)C(=O)NCC(=O)N[C@@H](C)C(=O)N1CCC[C@H]1C(=O)N[C@@H](CC(C)C)C(=O)N[C@@H](CO)C(=O)N[C@@H](CO)C(=O)N[C@H](C(=O)N[C@@H](CC(N)=O)C(=O)N[C@H](C(=O)NCC(=O)N[C@@H](CO)C(=O)N[C@@H](CC(=O)O)C(=O)N[C@H](C(=O)N[C@@H](Cc1ccc(O)cc1)C(N)=O)[C@@H](C)O)C(C)C)[C@@H](C)O [Peptide 5] (H-K([γGlu-γGlu-C20 diacid])CNTATCATQRLADFLRHSSPNFGAPLSSTNVGSDTY-NH2; disulfide 2-7)
- IC50 (hCTR [1]; [3]): 30.2 nM
- IC50 (hCTR [1]; [4]): 30.2 nM
- EC50 (hCTR [2]; [5]): 2.57 nM
- EC50 (hCTR [2]; [6]): 2.58 nM

SMILES: CC(C)C[C@H](NC(=O)[C@H](CCCNC(=N)N)NC(=O)[C@H](CCC(N)=O)NC(=O)[C@@H](NC(=O)[C@H](C)NC(=O)[C@@H]1CSSC[C@H](NC(=O)[C@@H](N)CCCCNC(=O)CC[C@H](NC(=O)CC[C@H](NC(=O)CCCCCCCCCCCCCCCCCCC(=O)O)C(=O)O)C(=O)O)C(=O)N[C@@H](CC(N)=O)C(=O)N[C@@H]([C@@H](C)O)C(=O)N[C@@H](C)C(=O)N[C@@H]([C@@H](C)O)C(=O)N1)[C@@H](C)O)C(=O)N[C@@H](C)C(=O)N[C@@H](CC(=O)O)C(=O)N[C@@H](Cc1ccccc1)C(=O)N[C@@H](CC(C)C)C(=O)N[C@@H](CCCNC(=N)N)C(=O)N[C@@H](Cc1c[nH]cn1)C(=O)N[C@@H](CO)C(=O)N[C@@H](CO)C(=O)N[C@@H](CC(N)=O)C(=O)N1CCC[C@H]1C(=O)N[C@@H](Cc1ccccc1)C(=O)NCC(=O)N[C@@H](C)C(=O)N1CCC[C@H]1C(=O)N[C@@H](CC(C)C)C(=O)N[C@@H](CO)C(=O)N[C@@H](CO)C(=O)N[C@H](C(=O)N[C@@H](CC(N)=O)C(=O)N[C@H](C(=O)NCC(=O)N[C@@H](CO)C(=O)N[C@@H](CC(=O)O)C(=O)N[C@H](C(=O)N[C@@H](Cc1ccc(O)cc1)C(N)=O)[C@@H](C)O)C(C)C)[C@@H](C)O [Peptide 7] (H-K([γGlu-γGlu-C20 diacid])CNTATCATQRLADFLRHSSNPFGAPLSSTNVGSDTY-NH2; disulfide 2-7)
- hCTR pEC50 (hCTR [2]; Tables S12 and S14): 8.86

SMILES: CC[C@H](C)[C@H](NC(=O)[C@H](C)NC(=O)CNC(=O)[C@H](Cc1ccccc1)NC(=O)[C@H](CC(N)=O)NC(=O)[C@@H]1CCCN1C(=O)[C@H](CO)NC(=O)[C@H](CO)NC(=O)[C@H](Cc1c[nH]cn1)NC(=O)[C@H](CCCNC(=N)N)NC(=O)[C@H](CC(C)C)NC(=O)[C@H](Cc1ccccc1)NC(=O)[C@H](CCC(=O)O)NC(=O)[C@H](C)NC(=O)[C@H](CC(C)C)NC(=O)[C@H](CCCNC(=N)N)NC(=O)[C@H](CCC(N)=O)NC(=O)[C@@H](NC(=O)[C@H](C)NC(=O)[C@@H]1CSSC[C@H](NC(=O)[C@@H](N)CCCCNC(=O)CC[C@H](NC(=O)CCCCCCCCCCCCCCCCCCC(=O)O)C(=O)O)C(=O)N[C@@H](CC(N)=O)C(=O)N[C@@H]([C@@H](C)O)C(=O)N[C@@H](C)C(=O)N[C@@H]([C@@H](C)O)C(=O)N1)[C@@H](C)O)C(=O)N1CCC[C@H]1C(=O)N[C@@H](CO)C(=O)N[C@@H](CO)C(=O)N[C@H](C(=O)N[C@@H](CC(N)=O)C(=O)N[C@H](C(=O)NCC(=O)N[C@@H](CO)C(=O)N[C@@H](CCCNC(=N)N)C(=O)N[C@H](C(=O)N[C@@H](Cc1ccc(O)cc1)C(N)=O)[C@@H](C)O)C(C)C)[C@@H](C)O [Peptide 20] (H-K([γGlu-C20 diacid])CNTATCATQRLAEFLRHSSPNFGAIPSSTNVGSRTY-NH2; disulfide 2-7)
- hCTR pEC50 (hCTR [2]; Tables S12 and S14): 8.28
- EC50 (hCTR [2]; [6]): 5.2 nM
